Patent US20260262643A1, “HERBICIDAL BENZOXAZINES” (FMC CORPORATION, priority 2022, published 2026)

How the values were obtained:
blackgrass [1] = test: Test A preemergence; assay type: in vivo, Alopecurus myosuroides
Summary of the method: (§1)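 Seeds in loam–sand blend received a directed preemergence soil spray of compound in non-phytotoxic solvent with surfactant; postemergence plants (2–10 cm, one- to two-leaf stage) were sprayed with the same formulation. After 10 days in greenhouse, injury was rated visually versus untreated controls, 0 (no effect) to 100 (complete control).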

corn [2] = test: Test A preemergence; assay type: in vivo, Zea mays
From the text: (§2) Seeds of plant species selected from barnyardgrass (Echinochloa crusgalli), blackgrass (Alopecurus myosuroides), corn (Zea mays), foxtail, giant (giant foxtail, Setaria faberi), goosegrass (Eleusine indica), kochia (Bassia scoparia), oat, wild (wild oat, Avena fatua), pigweed, palmer (palmer amaranth, palmer pigweed, Amaranthus palmeri), Pigweed, Redroot (redroot pigweed, Amaranthus retroflexus), ragweed (common ragweed, Ambrosia artemisiifolia), ryegrass, Italian (italian ryegrass, Lolium multiflorum), soybean (Glycine max), and wheat (Triticum aestivum) were planted into a blend of loam soil and sand and treated preemergence with a directed soil spray using test chemicals formulated in a non-phytotoxic solvent mixture which included a surfactant. At the same time, plants selected from these crops and weed species and also galium (catchweed bedstraw, Galium aparine) and horseweed (Erigeron canadensis) were planted in pots containing the same blend of loam soil and sand and treated with postemergence applications of test chemicals formulated in the same manner. Plants ranged in height from 2 to 10 cm and were in the one- to two-leaf stage for the postemergence treatment. Treated plants and untreated controls were maintained in a greenhouse for 10 days, after which time all treated plants were compared to untreated controls and visually evaluated for injury. Plant response ratings, summarized in Table A, are based on a 0 to 100 scale where 0 is no effect and 100 is complete control. A dash (-) response means no test result.

foxtail, giant [3] = test: Test A preemergence; assay type: in vivo, Setaria faberi
Summary of the method: as §1

goosegrass [4] = test: Test A preemergence; assay type: in vivo, Eleusine indica
Summary of the method: as §1

kochia [5] = test: Test A preemergence; assay type: in vivo, Bassia scoparia
Summary of the method: as §1

oat, wild [6] = test: Test A preemergence; assay type: in vivo, Avena fatua
From the text: as §2

pigweed, palmer [7] = test: Test A preemergence; assay type: in vivo, Amaranthus palmeri
Summary of the method: as §1

ragweed [8] = test: Test A preemergence; assay type: in vivo, Ambrosia artemisiifolia
Summary of the method: as §1

ryegrass, Italian [9] = test: Test A preemergence; assay type: in vivo, Lolium multiflorum
Summary of the method: as §1

soybean [10] = test: Test A preemergence; assay type: in vivo, Glycine max
From the text: as §2

wheat [11] = test: Test A preemergence; assay type: in vivo, Triticum aestivum
From the text: as §2

blackgrass [12] = test: Test A postemergence; assay type: in vivo, Alopecurus myosuroides
Summary of the method: as §1

corn [13] = test: Test A postemergence; assay type: in vivo, Zea mays
From the text: as §2

foxtail, giant [14] = test: Test A postemergence; assay type: in vivo, Setaria faberi
Summary of the method: as §1

goosegrass [15] = test: Test A postemergence; assay type: in vivo, Eleusine indica
Summary of the method: as §1

kochia [16] = test: Test A postemergence; assay type: in vivo, Bassia scoparia
Summary of the method: as §1

oat, wild [17] = test: Test A postemergence; assay type: in vivo, Avena fatua
From the text: as §2

pigweed, palmer [18] = test: Test A postemergence; assay type: in vivo, Amaranthus palmeri
Summary of the method: as §1

ragweed [19] = test: Test A postemergence; assay type: in vivo, Ambrosia artemisiifolia
Summary of the method: as §1

ryegrass, Italian [20] = test: Test A postemergence; assay type: in vivo, Lolium multiflorum
Summary of the method: as §1

soybean [21] = test: Test A postemergence; assay type: in vivo, Glycine max
From the text: as §2

wheat [22] = test: Test A postemergence; assay type: in vivo, Triticum aestivum
From the text: as §2

galium = test: Test A postemergence; assay type: in vivo, Galium aparine
Summary of the method: as §1

barnyardgrass = test: Test B flooded paddy test; assay type: in vivo, Echinochloa crus-galli; conditions: 250 g ai/ha, Flood, 13 days, 0 to 100 scale (0 no effect, 100 complete control)
Summary of the method: (§3)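 Plants at the 2-leaf stage were flooded to 3 cm above the soil, and test compounds were applied directly into the paddy water, with that depth held throughout. After 13 days in a greenhouse, injury was rated visually against untreated controls on a 0–100 scale (100 = complete control).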

ducksalad = test: Test B flooded paddy test; assay type: in vivo, Heteranthera limosa; conditions: 250 g ai/ha, Flood, 13 days, 0 to 100 scale (0 no effect, 100 complete control)
Summary of the method: as §3

rice = test: Test B flooded paddy test; assay type: in vivo, Oryza sativa; conditions: 250 g ai/ha, Flood, 13 days, 0 to 100 scale (0 no effect, 100 complete control)
Summary of the method: as §3

sedge, umbrella = test: Test B flooded paddy test; assay type: in vivo, Cyperus difformis; conditions: 250 g ai/ha, Flood, 13 days, 0 to 100 scale (0 no effect, 100 complete control)
Summary of the method: as §3

[23] = 125 g ai/ha, visual injury after 10 days, 0 to 100 scale, 0 is no effect, 100 is complete control
[24] = 500 g ai/ha, 0 to 100 scale (0 no effect, 100 complete control), 10 days
[25] = 125 g ai/ha, postemergence, 10 days, visual injury, 0 to 100 scale (0 no effect, 100 complete control)
[26] = 500 g ai/ha, Postemergence, 0 to 100 scale

C[C@H]1CN(C(=O)c2cccc(-n3cncn3)c2)c2cccc(C#N)c2O1 [Compound 46]
20: Plant response rating, Soybean (soybean [10]; [23]) | Plant response rating, Foxtail, Giant (foxtail, giant [14]; [25]) | Plant response rating, Kochia (kochia [16]; [25]) | Plant response rating, Pigweed, Palmer (pigweed, palmer [18]; [25])
90: Plant response rating, Blackgrass (blackgrass [1]; [24]) | Plant response rating, Pigweed, Palmer (pigweed, palmer [7]; [24]) | Plant response rating, Foxtail, Giant (foxtail, giant [14]; [26]) | Plant response rating, Soybean (soybean [21]; [25])
70: Plant response rating, Oat, Wild (oat, wild [6]; [24]) | Plant response rating, Blackgrass (blackgrass [12]; [26])
60: Plant response rating, Blackgrass (blackgrass [1]; [23]) | Plant response rating, Foxtail, Giant (foxtail, giant [3]; [23]) | Plant response rating, Goosegrass (goosegrass [4]; [23]) | Plant response rating, Ryegrass, Italian (ryegrass, Italian [9]; [23]) | Plant response rating, Soybean (soybean [10]; [24]) | Plant response rating, Goosegrass (goosegrass [15]; [26]) | Plant response rating, Galium (galium; [25])
40: Plant response rating, Kochia (kochia [5]; [24]) | Plant response rating, Pigweed, Palmer (pigweed, palmer [7]; [23]) | Plant response rating, Oat, Wild (oat, wild [17]; [26]) | Plant response rating, Ryegrass, Italian (ryegrass, Italian [20]; [25])
10: Plant response rating, Corn (corn [13]; [25]) | Plant response rating, Goosegrass (goosegrass [15]; [25]) | Plant response rating, Wheat (wheat [22]; [25])
30: Plant response rating, Wheat (wheat [11]; [24]) | Plant response rating, Blackgrass (blackgrass [12]; [25]) | Plant response rating, Corn (corn [13]; [26])
0: Plant response rating, Corn (corn [2]; [23]) | Plant response rating, Corn (corn [2]; [24]) | Plant response rating, Oat, Wild (oat, wild [6]; [23]) | Plant response rating, Ragweed (ragweed [8]; [23]) | Plant response rating, Ragweed (ragweed [8]; [24]) | Plant response rating, Wheat (wheat [11]; [23]) | Plant response rating, Oat, Wild (oat, wild [17]; [25]) | Plant response rating, Ragweed (ragweed [19]; [25]) | Plant response rating, Ragweed (ragweed [19]; [26]) | Plant response rating, Barnyardgrass (barnyardgrass) | Plant response rating, Ducksalad (ducksalad) | Plant response rating, Rice (rice) | Plant response rating, Sedge, Umbrella (sedge, umbrella)
100: Plant response rating, Foxtail, Giant (foxtail, giant [3]; [24]) | Plant response rating, Goosegrass (goosegrass [4]; [24]) | Plant response rating, Soybean (soybean [21]; [26]) | Plant response rating, Galium (galium; [26])
80: Plant response rating, Ryegrass, Italian (ryegrass, Italian [9]; [24]) | Plant response rating, Kochia (kochia [16]; [26]) | Plant response rating, Ryegrass, Italian (ryegrass, Italian [20]; [26])
50: Plant response rating, Pigweed, Palmer (pigweed, palmer [18]; [26]) | Plant response rating, Wheat (wheat [22]; [26])

C[C@H]1CN(C(=O)c2cccc(-n3cncn3)c2)c2cccc(C(F)(F)F)c2O1 [Compound 47]
50: Plant response rating, Kochia (kochia [5]; [24]) | Plant response rating, Kochia (kochia [16]; [25])
70: Plant response rating, Blackgrass (blackgrass [1]; [23]) | Plant response rating, Pigweed, Palmer (pigweed, palmer [18]; [25])
80: Plant response rating, Goosegrass (goosegrass [4]; [23]) | Plant response rating, Ryegrass, Italian (ryegrass, Italian [9]; [23]) | Plant response rating, Soybean (soybean [21]; [25])
90: Plant response rating, Blackgrass (blackgrass [1]; [24]) | Plant response rating, Foxtail, Giant (foxtail, giant [3]; [24]) | Plant response rating, Pigweed, Palmer (pigweed, palmer [7]; [24]) | Plant response rating, Ryegrass, Italian (ryegrass, Italian [9]; [24]) | Plant response rating, Foxtail, Giant (foxtail, giant [14]; [26]) | Plant response rating, Kochia (kochia [16]; [26]) | Plant response rating, Pigweed, Palmer (pigweed, palmer [18]; [26]) | Plant response rating, Ryegrass, Italian (ryegrass, Italian [20]; [26]) | Plant response rating, Galium (galium; [26])
100: Plant response rating, Goosegrass (goosegrass [4]; [24]) | Plant response rating, Soybean (soybean [21]; [26])
0: Plant response rating, Corn (corn [2]; [23]) | Plant response rating, Corn (corn [2]; [24]) | Plant response rating, Kochia (kochia [5]; [23]) | Plant response rating, Ragweed (ragweed [8]; [23]) | Plant response rating, Ragweed (ragweed [8]; [24]) | Plant response rating, Soybean (soybean [10]; [23]) | Plant response rating, Wheat (wheat [11]; [23]) | Plant response rating, Goosegrass (goosegrass [15]; [25]) | Plant response rating, Ragweed (ragweed [19]; [25]) | Plant response rating, Ragweed (ragweed [19]; [26]) | Plant response rating, Barnyardgrass (barnyardgrass) | Plant response rating, Ducksalad (ducksalad) | Plant response rating, Rice (rice) | Plant response rating, Sedge, Umbrella (sedge, umbrella)
10: Plant response rating, Oat, Wild (oat, wild [6]; [23]) | Plant response rating, Blackgrass (blackgrass [12]; [25]) | Plant response rating, Oat, Wild (oat, wild [17]; [25])
40: Plant response rating, Soybean (soybean [10]; [24]) | Plant response rating, Wheat (wheat [22]; [26])
20: Plant response rating, Wheat (wheat [11]; [24]) | Plant response rating, Goosegrass (goosegrass [15]; [26]) | Plant response rating, Wheat (wheat [22]; [25])
60: Plant response rating, Foxtail, Giant (foxtail, giant [3]; [23]) | Plant response rating, Pigweed, Palmer (pigweed, palmer [7]; [23]) | Plant response rating, Blackgrass (blackgrass [12]; [26]) | Plant response rating, Corn (corn [13]; [26]) | Plant response rating, Galium (galium; [25])
30: Plant response rating, Oat, Wild (oat, wild [6]; [24]) | Plant response rating, Corn (corn [13]; [25]) | Plant response rating, Foxtail, Giant (foxtail, giant [14]; [25]) | Plant response rating, Oat, Wild (oat, wild [17]; [26]) | Plant response rating, Ryegrass, Italian (ryegrass, Italian [20]; [25])
